Source: publication PMC9454393 (Scientific Reports, 2022)
Like-named read-outs stand apart in the source and are kept apart here.

What was measured:
[1] = target: T1, AChE (Homo sapiens, UniProt P22303); experiment: biochemical; details: mean ± SD
Experimental: (§1) A previously described modified protocol of Ellman's spectrophotometric assay in clear flat-bottomed, 96-well plates, was used. […] The absorbance of each well was measured at 415 nm using a microplate reader. […]

[2] = target: BChE (Homo sapiens, UniProt P06276); experiment: BChE inhibition, modified Ellman's spectrophotometric assay; assay type: biochemical; details: mean ± SD
Experimental: as §1

[3] = target: T1, AChE; details: cited from earlier work
[4] = 50 µM compound, NA = not active

T1 sequence (P22303 32-614): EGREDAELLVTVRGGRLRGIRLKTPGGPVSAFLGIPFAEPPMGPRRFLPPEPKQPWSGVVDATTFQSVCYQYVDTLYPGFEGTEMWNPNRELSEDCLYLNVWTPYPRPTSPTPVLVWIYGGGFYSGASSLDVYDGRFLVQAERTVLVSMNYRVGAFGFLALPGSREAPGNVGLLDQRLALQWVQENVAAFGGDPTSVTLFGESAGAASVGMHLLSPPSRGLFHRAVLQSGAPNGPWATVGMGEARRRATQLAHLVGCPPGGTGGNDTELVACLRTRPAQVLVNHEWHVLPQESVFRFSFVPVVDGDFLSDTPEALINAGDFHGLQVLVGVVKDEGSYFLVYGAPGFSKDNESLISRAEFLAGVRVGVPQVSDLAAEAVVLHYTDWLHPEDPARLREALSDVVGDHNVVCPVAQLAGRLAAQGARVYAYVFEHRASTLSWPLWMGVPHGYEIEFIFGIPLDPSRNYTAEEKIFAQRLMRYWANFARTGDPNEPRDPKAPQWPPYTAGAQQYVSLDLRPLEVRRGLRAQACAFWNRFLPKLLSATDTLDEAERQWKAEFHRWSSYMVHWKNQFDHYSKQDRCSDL
Chain of BChE (P06276 29-602): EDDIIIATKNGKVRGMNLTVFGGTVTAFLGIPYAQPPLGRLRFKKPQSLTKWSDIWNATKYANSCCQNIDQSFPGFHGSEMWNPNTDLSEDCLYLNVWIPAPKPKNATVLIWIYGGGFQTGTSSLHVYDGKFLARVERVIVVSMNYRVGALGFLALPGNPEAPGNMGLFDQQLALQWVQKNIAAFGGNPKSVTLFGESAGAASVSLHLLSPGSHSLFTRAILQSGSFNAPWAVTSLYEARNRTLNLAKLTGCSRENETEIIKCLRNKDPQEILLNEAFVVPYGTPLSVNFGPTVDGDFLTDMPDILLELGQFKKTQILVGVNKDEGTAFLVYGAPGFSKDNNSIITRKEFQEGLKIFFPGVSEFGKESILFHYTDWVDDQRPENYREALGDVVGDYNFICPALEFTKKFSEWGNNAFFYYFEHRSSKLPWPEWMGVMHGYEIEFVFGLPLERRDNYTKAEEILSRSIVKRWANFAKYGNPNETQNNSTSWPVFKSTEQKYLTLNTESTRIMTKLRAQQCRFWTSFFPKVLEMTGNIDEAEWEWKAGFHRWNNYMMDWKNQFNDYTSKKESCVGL

Compound: CCOC(=O)C(C(N)=O)c1c([N+](=O)[O-])c(NCc2ccco2)n(Cc2ccco2)c1-c1ccc(C)cc1 (stereo not shown) [Compound 4q, Ethyl3-amino-2-(1-(furan-2-ylmethyl)-5-((furan-2-ylmethyl)amino)-4-nitro-2-(p-tolyl)-1H-pyrrol-3-yl)-3-oxopropanoate]
- inhibition at 50 µM [1, 4]: 17.8 ± 2.44%
- inhibition at 50 µM [2, 4]: 68.4 ± 6.35%
- IC50 [2]: 18.6 ± 2.71 µM

Compound: COc1cccc2cc(C(=O)/C=C/c3ccc[n+](Cc4ccccc4Br)c3)oc12 [D]
- IC50 ([3]; Fig. 2 traditional AChE inhibitors, read-out: IC50 against AChE): 0.027 µM

Compound: Cc1ccc(-c2c(C(C#N)C(N)=O)c([N+](=O)[O-])c(NCc3ccco3)n2Cc2ccco2)cc1 (stereo not shown) [Compound 4o, 2-cyano-2-(1-(furan-2-ylmethyl)-5-((furan-2-ylmethyl)amino)-4-nitro-2-(p-tolyl)-1H-pyrrol-3-yl)acetamide]
- inhibition at 50 µM [1, 4]: 19.8 ± 4.18%
- inhibition at 50 µM [2, 4]: 46.1 ± 6.43%
- IC50 [2]: 69.2 ± 5.09 µM

Compound: CCOC(=O)C(C(N)=O)c1c([N+](=O)[O-])c2n(c1-c1ccccc1)CC(C)(C)CN2 (stereo not shown) [Compound 4d, Ethyl3-amino-2-(3,3-dimethyl-8-nitro-6-phenyl-1,2,3,4-tetrahydropyrrolo[1,2-a]pyrimidin-7-yl)-3-oxopropanoate]
- inhibition at 50 µM [1, 4]: 13.5 ± 1.58%
- inhibition at 50 µM [2, 4]: 13.5 ± 2.96%

Compound: COC(=O)C(C(N)=O)c1c([N+](=O)[O-])c(SC)n(-c2ccc(C)c(C)c2)c1-c1ccccc1 (stereo not shown) [Compound 4aj, Methyl3-amino-2-(1-(3,4-dimethylphenyl)-5-(methylthio)-4-nitro-2-phenyl-1H-pyrrol-3-yl)-3-oxopropanoate]
- inhibition at 50 µM [1, 4]: 38.9 ± 5.99%

Compound: N#CC(C(N)=O)c1c([N+](=O)[O-])c(NCc2ccccc2)n(Cc2ccccc2)c1-c1ccc(Cl)cc1 (stereo not shown) [Compound 4p, 2-(1-benzyl-5-(benzylamino)-2-(4-chlorophenyl)-4-nitro-1H-pyrrol-3-yl)-2-cyanoacetamide]
- inhibition at 50 µM [1, 4]: 18.7 ± 3.52%

Compound: N#CC(C(N)=O)c1c(-c2ccc3ccccc3c2)[nH]c(N)c1[N+](=O)[O-] (stereo not shown) [Compound 4y, 2-(5-amino-2-(naphthalen-2-yl)-4-nitro-1H-pyrrol-3-yl)-2-cyanoacetamide]
- inhibition at 50 µM [2, 4]: 19.1 ± 4.3%

Compound: COc1ccc(-n2c(SC)c([N+](=O)[O-])c(C(C#N)C(N)=O)c2-c2ccc(Cl)cc2)cc1 (stereo not shown) [Compound 4aa, 2-(2-(4-chlorophenyl)-1-(4-methoxyphenyl)-5-(methylthio)-4-nitro-1H-pyrrol-3-yl)-2-cyanoacetamide]
- inhibition at 50 µM [1, 4]: 48.6 ± 2.77%
- IC50 [1]: 54.6 ± 5.71 µM
- inhibition at 50 µM [2, 4]: 22.3 ± 3.91%

Compound: CC1(C)CNc2c([N+](=O)[O-])c(C(C#N)C(N)=O)c(-c3ccccc3)n2C1 (stereo not shown) [Compound 4b, 2-cyano-2-(3,3-dimethyl-8-nitro-6-phenyl-1,2,3,4-tetrahydropyrrolo[1,2-a]pyrimidin-7-yl)acetamide]
- inhibition at 50 µM [1, 4]: 52 ± 4.43%
- IC50 [1]: 37.1 ± 3.52 µM

Compound: CCOC(=O)C(C(N)=O)c1c([N+](=O)[O-])c2n(c1-c1ccccc1)CCCN2 (stereo not shown) [Compound 4g, Ethyl 3-amino-2-(8-nitro-6-phenyl-1,2,3,4-tetrahydropyrrolo[1,2-a]pyrimidin-7-yl)-3-oxopropanoate]
- inhibition at 50 µM [1, 4]: 30.8 ± 5.17%

Compound: COC(=O)C(C(N)=O)c1c([N+](=O)[O-])c2n(c1-c1ccc(C)cc1)CC(C)(C)CN2 (stereo not shown) [Compound 4j, Methyl3-amino-2-(3,3-dimethyl-8-nitro-6-(p-tolyl)-1,2,3,4-tetrahydropyrrolo[1,2-a]pyrimidin-7-yl)-3-oxopropanoate]
- inhibition at 50 µM [1, 4]: 14.9 ± 2.45%
- inhibition at 50 µM [2, 4]: 28.2 ± 3.83%

Compound: COc1cccc(-c2c(C(C#N)C(N)=O)c([N+](=O)[O-])c3n2CCCN3)c1 (stereo not shown) [Compound 4f, 2-cyano-2-(6-(3-methoxyphenyl)-8-nitro-1,2,3,4-tetrahydropyrrolo[1,2-a]pyrimidin-7-yl)acetamide]
- inhibition at 50 µM [1, 4]: 33.5 ± 5.19%
- inhibition at 50 µM [2, 4]: 17.8 ± 2.79%

Compound: CCOC(=O)C(C(N)=O)c1c([N+](=O)[O-])c(SC)n(-c2ccc(C)cc2)c1-c1ccccc1 (stereo not shown) [Compound 4ai, Ethyl3-amino-2-(5-(methylthio)-4-nitro-2-phenyl-1-(p-tolyl)-1H-pyrrol-3-yl)-3-oxopropanoate]
- inhibition at 50 µM [1, 4]: 24.2 ± 2.23%

Compound: CSc1c([N+](=O)[O-])c(C(C#N)C(N)=O)c(-c2ccc(C)cc2)n1-c1ccc(O)cc1 (stereo not shown) [Compound 4ae, 2-cyano-2-(1-(4-hydroxyphenyl)-5-(methylthio)-4-nitro-2-(p-tolyl)-1H-pyrrol-3-yl)acetamide]
- inhibition at 50 µM [1, 4]: 52.4 ± 5.07%
- IC50 [1]: 33.1 ± 3.11 µM
- inhibition at 50 µM [2, 4]: 17.1 ± 3.49%

Compound: CCOC(=O)C(C(N)=O)c1c([N+](=O)[O-])c(NCc2ccccc2)n(Cc2ccccc2)c1-c1ccc(C)cc1 (stereo not shown) [Compound 4t, Ethyl 3-amino-2-(1-benzyl-5-(benzylamino)-4-nitro-2-(p-tolyl)-1H-pyrrol-3-yl)-3-oxopropanoate]
- inhibition at 50 µM [2, 4]: 26.5 ± 5.12%

Compound: CC1(C)CNc2c([N+](=O)[O-])c(C(C#N)C(N)=O)c(-c3ccc(Cl)cc3)n2C1 (stereo not shown) [Compound 4e, 2-(6-(4-chlorophenyl)-3,3-dimethyl-8-nitro-1,2,3,4-tetrahydropyrrolo[1,2-a]pyrimidin-7-yl)-2-cyanoacetamide]
- inhibition at 50 µM [1, 4]: 57 ± 5.46%
- IC50 [1]: 36.3 ± 4.85 µM
- inhibition at 50 µM [2, 4]: 18.1 ± 2.89%

Compound: CSc1c([N+](=O)[O-])c(C(C#N)C(N)=O)c(-c2ccc(C)cc2)n1-c1ccc(C)c(C)c1 (stereo not shown) [Compound 4z, 2-cyano-2-(1-(3,4-dimethylphenyl)-5-(methylthio)-4-nitro-2-(p-tolyl)-1H-pyrrol-3-yl)acetamide]
- inhibition at 50 µM [1, 4]: 26.7 ± 5.14%

Compound: Ethyl3-amino-2-(5-(methylthio)-4-nitro-1-phenyl-2-(p-tolyl)-1H-pyrrol-3-yl)-3-oxopropanoate [Compound 4ak]
- AChE % inhibition at 50 µM [1, 4]: 20.79 ± 2.62%
- BChE % inhibition at 50 µM [2, 4]: 25.56 ± 6.89%

Compound: CCOC(=O)C(C(N)=O)c1c([N+](=O)[O-])c(SC)n(-c2ccc(OC)cc2)c1-c1ccc(Cl)cc1 (stereo not shown) [Compound 4ac, Ethyl 3-amino-2-(2-(4-chlorophenyl)-1-(4-methoxyphenyl)-5-(methylthio)-4-nitro-1H-pyrrol-3-yl)-3-oxopropanoate]
- inhibition at 50 µM [1, 4]: 11.8 ± 3.92%
- inhibition at 50 µM [2, 4]: 33.8 ± 4.84%

Compound: N#CC(C(N)=O)c1c([N+](=O)[O-])c2n(c1-c1ccccc1)CCCN2 (stereo not shown) [Compound 4c, 2-cyano-2-(8-nitro-6-phenyl-1,2,3,4-tetrahydropyrrolo[1,2-a]pyrimidin-7-yl)acetamide]
- inhibition at 50 µM [1, 4]: 39.8 ± 3.69%

Compound: N#CC(C(N)=O)c1c(-c2ccc(Cl)cc2)[nH]c(N)c1[N+](=O)[O-] (stereo not shown) [Compound 4w, 2-(5-amino-2-(4-chlorophenyl)-4-nitro-1H-pyrrol-3-yl)-2-cyanoacetamide]
- inhibition at 50 µM [1, 4]: 48.6 ± 4.53%
- inhibition at 50 µM [2, 4]: 33.5 ± 3.4%

Compound: CCOC(=O)C(C(N)=O)c1c([N+](=O)[O-])c2n(c1-c1ccc(C)cc1)CC(C)(C)CN2 (stereo not shown) [Compound 4l, Ethyl3-amino-2-(3,3-dimethyl-8-nitro-6-(p-tolyl)-1,2,3,4-tetrahydropyrrolo[1,2-a]pyrimidin-7-yl)-3-oxopropanoate]
- inhibition at 50 µM [1, 4]: 14.2 ± 2.12%

Compound: Cc1ccc(-c2c(C(C#N)C(N)=O)c([N+](=O)[O-])c3n2CC(C)(C)CN3)cc1 (stereo not shown) [Compound 4h, 2-cyano-2-(3,3-dimethyl-8-nitro-6-(p-tolyl)-1,2,3,4-tetrahydropyrrolo[1,2-a]pyrimidin-7-yl)acetamide]
- inhibition at 50 µM [1, 4]: 45.8 ± 2.81%
- IC50 [1]: 67.6 ± 7.54 µM

Compound: Cc1ccc(-c2c(C(C#N)C(N)=O)c([N+](=O)[O-])c3n2CCCN3)cc1 (stereo not shown) [Compound 4a, 2-cyano-2-(8-nitro-6-(p-tolyl)-1,2,3,4-tetrahydropyrrolo[1,2-a]pyrimidin-7-yl)acetamide]
- inhibition at 50 µM [1, 4]: 14.7 ± 2.26%
- inhibition at 50 µM [2, 4]: 26.1 ± 4.09%

Compound: CSc1c([N+](=O)[O-])c(C(C#N)C(N)=O)c(-c2ccc(C)cc2)n1-c1ccc(C)cc1 (stereo not shown) [Compound 4ag, 2-cyano-2-(5-(methylthio)-4-nitro-1,2-di-p-tolyl-1H-pyrrol-3-yl)acetamide]
- inhibition at 50 µM [1, 4]: 33.3 ± 2.31%

Compound: COC(=O)C(C(N)=O)c1c([N+](=O)[O-])c2n(c1-c1ccc(Cl)cc1)CC(C)(C)CN2 (stereo not shown) [Compound 4k, Methyl3-amino-2-(6-(4-chlorophenyl)-3,3-dimethyl-8-nitro-1,2,3,4-tetrahydropyrrolo[1,2-a]pyrimidin-7-yl)-3-oxopropanoate]
- inhibition at 50 µM [1, 4]: 13.3 ± 4.88%
- inhibition at 50 µM [2, 4]: 13.7 ± 2.13%

Compound: N#CC(C(N)=O)c1c([N+](=O)[O-])c2n(c1-c1ccc(Cl)cc1)CCCN2 (stereo not shown) [Compound 4i, 2-(6-(4-chlorophenyl)-8-nitro-1,2,3,4-tetrahydropyrrolo[1,2-a]pyrimidin-7-yl)-2-cyanoacetamide]
- inhibition at 50 µM [1, 4]: 33.9 ± 6.87%

Compound: COC(=O)C(C(N)=O)c1c([N+](=O)[O-])c(SC)n(-c2ccc(C)cc2)c1-c1ccccc1 (stereo not shown) [Compound 4af, Methyl 3-amino-2-(5-(methylthio)-4-nitro-2-phenyl-1-(p-tolyl)-1H-pyrrol-3-yl)-3-oxopropanoate]
- inhibition at 50 µM [1, 4]: 24 ± 4.6%

Compound: CSc1c([N+](=O)[O-])c(C(C#N)C(N)=O)c(-c2ccc(Cl)cc2)n1-c1ccc(C)cc1 (stereo not shown) [Compound 4ah, 2-(2-(4-chlorophenyl)-5-(methylthio)-4-nitro-1-(p-tolyl)-1H-pyrrol-3-yl)-2-cyanoacetamide]
- inhibition at 50 µM [1, 4]: 72.5 ± 3.05%
- IC50 [1]: 4.78 ± 1.63 µM

Compound: COc1ccc(-c2[nH]c(N)c([N+](=O)[O-])c2C(C#N)C(N)=O)cc1 (stereo not shown) [Compound 4x, 2-(5-amino-2-(4-methoxyphenyl)-4-nitro-1H-pyrrol-3-yl)-2-cyanoacetamide]
- inhibition at 50 µM [1, 4]: 47.7 ± 3.91%
- inhibition at 50 µM [2, 4]: 19.4 ± 3.91%

Compound: CCOC(=O)C(C(N)=O)c1c([N+](=O)[O-])c(NCc2ccco2)n(Cc2ccco2)c1-c1ccc(Cl)cc1 (stereo not shown) [Compound 4n, Ethyl3-amino-2-(2-(4-chlorophenyl)-1-(furan-2-ylmethyl)-5-((furan-2-ylmethyl)amino)-4-nitro-1H-pyrrol-3-yl)-3-oxopropanoate]
- inhibition at 50 µM [2, 4]: 21.9 ± 1.18%

Compound: Cc1nc2ccccc2c2cc[nH]c12 [G]
- IC50 ([3]; Fig. 3, target per b17 AChE, read-out: IC50): 4.9 ± 0.9 µM

Compound: N#CC(C(N)=O)c1c([N+](=O)[O-])c(NCc2ccco2)n(Cc2ccco2)c1-c1ccc(Cl)cc1 (stereo not shown) [Compound 4s, 2-(2-(4-chlorophenyl)-1-(furan-2-ylmethyl)-5-((furan-2-ylmethyl)amino)-4-nitro-1H-pyrrol-3-yl)-2-cyanoacetamide]
- inhibition at 50 µM [2, 4]: 29.5 ± 3.87%
